Key:
Format in all cases: in vivo
[1] = system: XANST, Cocklebur, Xanthium strumariam; experiment: Postemergence herbicidal evaluation (Example 147); details: rating scale 0-9, two to three weeks after treatment
Outline: (§1)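 Greenhouse postemergence test: two-week seedlings sprayed at about 0.016 to 0.032 kg/ha active. Scored visually, 0-9 scale, after two to three weeks.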

[2] = system: IPOHE, Morningglory, Ivyleaf, Ipomoea hederacea, (L)Jacq.; experiment: Postemergence herbicidal evaluation (Example 147); details: rating scale 0-9, two to three weeks after treatment
Outline: as §1

[3] = system: ALOMY, Blackgrass, Alopecurus myosuroides; experiment: Postemergence herbicidal evaluation (Example 147); details: rating scale 0-9, two to three weeks after treatment
Outline: as §1

[4] = system: CHEAL, Lambsquarters, Chenopodium album, L. Common; experiment: Postemergence herbicidal evaluation (Example 147); details: rating scale 0-9, two to three weeks after treatment
Outline: as §1

[5] = system: ECHCG, Barnyardgrass, Echinochloa crusgalli, (L.)Beau; experiment: Postemergence herbicidal evaluation (Example 147); details: rating scale 0-9, two to three weeks after treatment
Outline: as §1

[6] = system: ZEAMX, Field corn, Zea mays L.; experiment: Postemergence herbicidal evaluation (Example 147); details: rating scale 0-9, two to three weeks after treatment
Outline: as §1

[7] = system: GLXMA, Soybean, Glycine max, (L.) Merr.; experiment: Postemergence herbicidal evaluation (Example 147); details: rating scale 0-9, two to three weeks after treatment
Outline: as §1

[8] = system: SETVI, Green foxtail, Setaria viridis, (L.)Beau; experiment: Postemergence herbicidal evaluation (Example 147); details: rating scale 0-9, two to three weeks after treatment
Outline: as §1

[9] = system: DIGSA, Crabgrass, (Hairy) L, Digitaria sanguinalis, (L)Scop; experiment: Postemergence herbicidal evaluation (Example 147); details: rating scale 0-9, two to three weeks after treatment
Outline: as §1

[10] = system: TRZAW, Winter wheat, Tritium Aestivum, L. (Winter); experiment: Postemergence herbicidal evaluation (Example 147); details: rating scale 0-9, two to three weeks after treatment
Outline: as §1

[11] = system: AMBEL, Ragweed, Common, Ambrosia artemiisifolia, L.; experiment: Postemergence herbicidal evaluation (Example 147); details: rating scale 0-9, two to three weeks after treatment
Outline: as §1

[12] = system: ABUTH, Velvetleaf, Abutilon theophrasti, Medic.; experiment: Postemergence herbicidal evaluation (Example 147); details: rating scale 0-9, two to three weeks after treatment
Outline: as §1

[13] = system: XANST, Cocklebur, Xanthium strumariam; experiment: Preemergence herbicidal evaluation (Example 148); details: rating scale 0-9, two to four weeks after treatment
Outline: (§2)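 Test compound was applied in aqueous acetone to freshly planted cups at an equivalent of about 0.125 to 0.250 kg/ha, before emergence. Ratings, taken after two to four weeks of greenhouse growth, were averaged where a compound was tested more than once.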

[14] = system: IPOHE, Morningglory, Ivyleaf, Ipomoea hederacea, (L)Jacq.; experiment: Preemergence herbicidal evaluation (Example 148); details: rating scale 0-9, two to four weeks after treatment
Outline: as §2

[15] = system: ALOMY, Blackgrass, Alopecurus myosuroides; experiment: Preemergence herbicidal evaluation (Example 148); details: rating scale 0-9, two to four weeks after treatment
Outline: as §2

[16] = system: CHEAL, Lambsquarters, Chenopodium album, L. Common; experiment: Preemergence herbicidal evaluation (Example 148); details: rating scale 0-9, two to four weeks after treatment
Outline: as §2

[17] = system: ECHCG, Barnyardgrass, Echinochloa crusgalli, (L.)Beau; experiment: Preemergence herbicidal evaluation (Example 148); details: rating scale 0-9, two to four weeks after treatment
Outline: as §2

[18] = system: ZEAMX, Field corn, Zea mays L.; experiment: Preemergence herbicidal evaluation (Example 148); details: rating scale 0-9, two to four weeks after treatment
Outline: as §2

[19] = system: GLXMA, Soybean, Glycine max, (L.) Merr.; experiment: Preemergence herbicidal evaluation (Example 148); details: rating scale 0-9, two to four weeks after treatment
Outline: as §2

[20] = system: SETVI, Green foxtail, Setaria viridis, (L.)Beau; experiment: Preemergence herbicidal evaluation (Example 148); details: rating scale 0-9, two to four weeks after treatment
Outline: as §2

[21] = system: DIGSA, Crabgrass, (Hairy) L, Digitaria sanguinalis, (L)Scop; experiment: Preemergence herbicidal evaluation (Example 148); details: rating scale 0-9, two to four weeks after treatment
Outline: as §2

[22] = system: TRZAW, Winter wheat, Tritium Aestivum, L. (Winter); experiment: Preemergence herbicidal evaluation (Example 148); details: rating scale 0-9, two to four weeks after treatment
Outline: as §2

[23] = system: AMBEL, Ragweed, Common, Ambrosia artemiisifolia, L.; experiment: Preemergence herbicidal evaluation (Example 148); details: rating scale 0-9, two to four weeks after treatment
Outline: as §2

[24] = system: ABUTH, Velvetleaf, Abutilon theophrasti, Medic.; experiment: Preemergence herbicidal evaluation (Example 148); details: rating scale 0-9, two to four weeks after treatment
Outline: as §2

CN(Cc1ccccc1)S(=O)(=O)NC(=O)c1cc(-n2c(=O)cc(C(F)(F)F)n(C)c2=O)c(F)cc1Cl [Example 61]
Postemergence herbicidal rating XANST ([1]; rate 0.016 kg/ha): 9.0 | Postemergence herbicidal rating XANST ([1]; rate 0.032 kg/ha): 9.0 | Postemergence herbicidal rating IPOHE ([2]; rate 0.016 kg/ha): 8.0 | Postemergence herbicidal rating IPOHE ([2]; rate 0.032 kg/ha): 9.0 | Postemergence herbicidal rating ALMOY ([3]; rate 0.016 kg/ha): 1.0 | Postemergence herbicidal rating ALMOY ([3]; rate 0.032 kg/ha): 1.0 | Postemergence herbicidal rating CHEAL ([4]; rate 0.016 kg/ha): 9.0 | Postemergence herbicidal rating CHEAL ([4]; rate 0.032 kg/ha): 8.0 | Postemergence herbicidal rating ECHCG ([5]; rate 0.016 kg/ha): 7.0 | Postemergence herbicidal rating ECHCG ([5]; rate 0.032 kg/ha): 8.0 | Postemergence herbicidal rating ZEAMX ([6]; rate 0.016 kg/ha): 7.5 | Postemergence herbicidal rating ZEAMX ([6]; rate 0.032 kg/ha): 7.5 | Postemergence herbicidal rating GLXMA ([7]; rate 0.016 kg/ha): 8.5 | Postemergence herbicidal rating GLXMA ([7]; rate 0.032 kg/ha): 8.5 | Postemergence herbicidal rating SETVI ([8]; rate 0.016 kg/ha): 7.0 | Postemergence herbicidal rating SETVI ([8]; rate 0.032 kg/ha): 9.0 | Postemergence herbicidal rating DIGSA ([9]; rate 0.016 kg/ha): 7.0 | Postemergence herbicidal rating DIGSA ([9]; rate 0.032 kg/ha): 6.0 | Postemergence herbicidal rating TRZAW ([10]; rate 0.016 kg/ha): 6.0 | Postemergence herbicidal rating TRZAW ([10]; rate 0.032 kg/ha): 6.5 | Postemergence herbicidal rating AMBEL ([11]; rate 0.016 kg/ha): 9.0 | Postemergence herbicidal rating AMBEL ([11]; rate 0.032 kg/ha): 9.0 | Postemergence herbicidal rating ABUTH ([12]; rate 0.016 kg/ha): 9.0 | Postemergence herbicidal rating ABUTH ([12]; rate 0.032 kg/ha): 9.0 | Preemergence herbicidal rating XANST ([13]; rate 0.125 kg/ha): 9.0 | Preemergence herbicidal rating XANST ([13]; rate 0.25 kg/ha): 9.0 | Preemergence herbicidal rating IPOHE ([14]; rate 0.125 kg/ha): 9.0 | Preemergence herbicidal rating IPOHE ([14]; rate 0.25 kg/ha): 9.0 | Preemergence herbicidal rating ALMOY ([15]; rate 0.125 kg/ha): 0.0 | Preemergence herbicidal rating ALMOY ([15]; rate 0.25 kg/ha): 0.0 | Preemergence herbicidal rating CHEAL ([16]; rate 0.125 kg/ha): 9.0 | Preemergence herbicidal rating CHEAL ([16]; rate 0.25 kg/ha): 9.0 | Preemergence herbicidal rating ECHCG ([17]; rate 0.125 kg/ha): 4.0 | Preemergence herbicidal rating ECHCG ([17]; rate 0.25 kg/ha): 7.0 | Preemergence herbicidal rating ZEAMX ([18]; rate 0.125 kg/ha): 2.0 | Preemergence herbicidal rating ZEAMX ([18]; rate 0.25 kg/ha): 2.0 | Preemergence herbicidal rating GLXMA ([19]; rate 0.125 kg/ha): 9.0 | Preemergence herbicidal rating GLXMA ([19]; rate 0.25 kg/ha): 9.0 | Preemergence herbicidal rating SETVI ([20]; rate 0.125 kg/ha): 3.0 | Preemergence herbicidal rating SETVI ([20]; rate 0.25 kg/ha): 6.0 | Preemergence herbicidal rating DIGSA ([21]; rate 0.125 kg/ha): 6.0 | Preemergence herbicidal rating DIGSA ([21]; rate 0.25 kg/ha): 9.0 | Preemergence herbicidal rating TRZAW ([22]; rate 0.125 kg/ha): 2.0 | Preemergence herbicidal rating TRZAW ([22]; rate 0.25 kg/ha): 3.0 | Preemergence herbicidal rating AMBEL ([23]; rate 0.125 kg/ha): 9.0 | Preemergence herbicidal rating AMBEL ([23]; rate 0.25 kg/ha): 9.0 | Preemergence herbicidal rating ABUTH ([24]; rate 0.125 kg/ha): 9.0 | Preemergence herbicidal rating ABUTH ([24]; rate 0.25 kg/ha): 9.0

From patent publication US6689773B2, “Uracil substituted phenyl sulfamoyl carboxamides” (BASF Aktiengesellschaft, priority 2000, dated 2004)
